Patent publication US9975885B2, “Broad-spectrum non-covalent coronavirus protease inhibitors” (priority 2016, dated 2018)
Marks after values point to notes of the source that are not given here.

Key:
[1] = molecular target: SARS-3CL^pro (Severe acute respiratory syndrome coronavirus (SARS-CoV), UniProt P0C6X7); format: biochemical
[2] = molecular target: HKU1-3CL^pro (Human coronavirus HKU1 (isolate N1) (HCoV-HKU1), UniProt P0C6X2); test: biochemical
[3] = molecular target: PEDV-3CL^pro (Porcine epidemic diarrhea virus (strain CV777) (PEDV), UniProt P0C6Y4); test: biochemical
Chain of PEDV-3CL^pro (P0C6Y4 2998-3299 limits assumed): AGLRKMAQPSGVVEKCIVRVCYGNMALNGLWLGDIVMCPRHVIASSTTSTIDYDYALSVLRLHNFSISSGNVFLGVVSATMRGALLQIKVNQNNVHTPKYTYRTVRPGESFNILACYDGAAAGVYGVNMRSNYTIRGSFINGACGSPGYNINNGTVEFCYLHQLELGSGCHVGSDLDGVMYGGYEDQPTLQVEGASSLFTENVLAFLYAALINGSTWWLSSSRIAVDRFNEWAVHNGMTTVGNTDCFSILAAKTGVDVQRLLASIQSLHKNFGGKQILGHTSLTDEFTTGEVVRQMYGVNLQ

[4] = molecular target: OC43-3CL^pro (Human coronavirus OC43 (HCoV-OC43), UniProt P0C6X6); format: biochemical
Chain of OC43-3CL^pro (P0C6X6 3247-3549 limits assumed): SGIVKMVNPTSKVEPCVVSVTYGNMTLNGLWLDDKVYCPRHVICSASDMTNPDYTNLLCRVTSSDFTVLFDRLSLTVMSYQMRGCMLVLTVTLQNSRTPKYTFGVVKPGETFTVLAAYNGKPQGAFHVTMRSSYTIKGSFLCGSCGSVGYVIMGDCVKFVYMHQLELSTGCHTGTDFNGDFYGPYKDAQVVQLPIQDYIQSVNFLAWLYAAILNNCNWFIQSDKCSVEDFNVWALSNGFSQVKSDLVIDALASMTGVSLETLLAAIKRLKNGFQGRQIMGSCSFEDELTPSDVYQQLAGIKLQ

[5] = molecular target: HKU4-3CL^pro (Bat coronavirus HKU4 (BtCoV) (BtCoV/HKU4/2004), UniProt P0C6W3); format: biochemical
Chain of HKU4-3CL^pro (P0C6W3 3292-3597 limits assumed): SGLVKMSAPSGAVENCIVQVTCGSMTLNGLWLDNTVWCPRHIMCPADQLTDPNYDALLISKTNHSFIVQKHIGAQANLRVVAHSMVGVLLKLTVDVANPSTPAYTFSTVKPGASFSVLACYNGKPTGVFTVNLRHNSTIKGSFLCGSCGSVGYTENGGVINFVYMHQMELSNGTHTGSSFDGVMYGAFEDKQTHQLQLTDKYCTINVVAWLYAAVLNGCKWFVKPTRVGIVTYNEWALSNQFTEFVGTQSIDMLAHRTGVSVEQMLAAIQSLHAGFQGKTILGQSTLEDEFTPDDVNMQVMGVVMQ

[6] = molecular target: HKU5-3CL^pro (Bat coronavirus HKU5 (BtCoV) (BtCoV/HKU5/2004), UniProt P0C6W4); format: biochemical
Chain of HKU5-3CL^pro (P0C6W4 3339-3644 limits assumed): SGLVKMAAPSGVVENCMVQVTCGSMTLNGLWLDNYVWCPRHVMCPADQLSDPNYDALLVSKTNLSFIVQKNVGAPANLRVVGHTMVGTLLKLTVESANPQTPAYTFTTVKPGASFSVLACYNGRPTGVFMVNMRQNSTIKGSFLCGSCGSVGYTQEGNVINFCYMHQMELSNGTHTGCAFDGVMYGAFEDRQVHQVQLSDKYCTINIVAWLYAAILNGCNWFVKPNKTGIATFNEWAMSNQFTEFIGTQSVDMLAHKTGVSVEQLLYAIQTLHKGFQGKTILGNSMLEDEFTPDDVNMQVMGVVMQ

[7] = molecular target: FIPV-3CL^pro (Feline coronavirus (strain FIPV WSU-79/1146) (FCoV), UniProt Q98VG9); test: biochemical
Chain of FIPV-3CL^pro (Q98VG9 2904-3205 limits assumed): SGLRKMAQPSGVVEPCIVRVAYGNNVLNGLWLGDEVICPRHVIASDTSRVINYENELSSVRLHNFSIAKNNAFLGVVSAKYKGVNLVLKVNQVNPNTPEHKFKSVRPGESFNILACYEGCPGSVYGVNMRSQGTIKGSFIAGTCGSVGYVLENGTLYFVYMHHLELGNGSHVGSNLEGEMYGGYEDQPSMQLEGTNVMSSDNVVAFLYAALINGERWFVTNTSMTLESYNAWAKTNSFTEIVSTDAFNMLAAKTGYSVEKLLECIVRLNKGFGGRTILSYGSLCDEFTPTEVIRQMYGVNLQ

[8] = test system: Ten CoV 3CL^pro's (FIPV-, PEDV-, NL63-, HKU1-, OC43-, SARS-, HKU4-, HKU5-, HKU9-, IBV-3CL^pro); format: biochemical, coronaviruses (α-, β-, γ-CoV)
[9] = molecular target: NL63-3CL^pro (Human coronavirus NL63 (HCoV-NL63), UniProt P0C6X5); test: biochemical
Chain of NL63-3CL^pro (P0C6X5 2940-3242 limits assumed): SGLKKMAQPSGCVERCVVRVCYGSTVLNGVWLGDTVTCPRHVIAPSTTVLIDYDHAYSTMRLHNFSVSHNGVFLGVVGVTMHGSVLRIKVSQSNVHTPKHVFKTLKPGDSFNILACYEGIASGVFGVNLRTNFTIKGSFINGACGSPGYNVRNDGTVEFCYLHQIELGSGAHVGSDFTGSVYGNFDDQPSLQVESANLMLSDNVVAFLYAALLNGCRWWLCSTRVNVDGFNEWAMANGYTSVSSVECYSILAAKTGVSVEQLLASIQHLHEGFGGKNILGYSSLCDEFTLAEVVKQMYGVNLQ

[10] = molecular target: HKU9-3CL^pro (Bat coronavirus HKU9 (BtCoV) (BtCoV/HKU9), UniProt P0C6W5); format: biochemical
Chain of HKU9-3CL^pro (P0C6W5 3104-3409 limits assumed): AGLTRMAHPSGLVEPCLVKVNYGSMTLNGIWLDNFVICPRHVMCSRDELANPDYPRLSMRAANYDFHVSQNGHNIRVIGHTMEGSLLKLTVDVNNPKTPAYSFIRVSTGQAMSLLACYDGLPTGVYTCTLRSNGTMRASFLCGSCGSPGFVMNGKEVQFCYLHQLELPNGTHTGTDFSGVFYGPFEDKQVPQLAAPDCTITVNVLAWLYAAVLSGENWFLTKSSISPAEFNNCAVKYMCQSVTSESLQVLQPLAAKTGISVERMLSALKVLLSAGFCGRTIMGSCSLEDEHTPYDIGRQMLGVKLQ

Chain of HKU1-3CL^pro (P0C6X2 3335-3637 limits assumed): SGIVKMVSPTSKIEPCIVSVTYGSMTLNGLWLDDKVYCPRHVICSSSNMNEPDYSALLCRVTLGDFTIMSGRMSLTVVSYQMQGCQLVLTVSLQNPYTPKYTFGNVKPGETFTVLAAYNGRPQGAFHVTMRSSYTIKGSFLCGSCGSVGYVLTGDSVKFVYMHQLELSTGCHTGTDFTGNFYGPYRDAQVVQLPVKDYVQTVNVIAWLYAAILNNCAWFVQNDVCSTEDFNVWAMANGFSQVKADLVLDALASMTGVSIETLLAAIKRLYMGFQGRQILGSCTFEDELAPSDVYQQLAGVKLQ

SMILES | IC50 [1] | IC50 [2] | inhibition at 100 µM ([2]; read-out: inhibition of HKU1-3CL^pro) | IC50 [3] | inhibition at 100 µM ([3]; read-out: inhibition of PEDV-3CL^pro) | IC50 [4] | IC50 [5] | IC50 [6] | IC50 [7] | Gini Coefficient [8] | Score (performance metric score) [8] | IC50 [9] | number of 3CL^pro's inhibited [8] | inhibition of HKU1-3CL^pro [2] | IC50 [10] | inhibition of SARS-3CL^pro [1] | inhibition of NL63-3CL^pro [9] | inhibition of OC43-3CL^pro [4] | IC50 HKU4 [5] | IC50 HKU5 [6]
CC(C)C(=O)Nc1ccc(N(C(=O)Cn2nnc3ccccc32)C(C(=O)NCc2cccnc2)c2cccc(F)c2)cc1 (stereo not drawn) [Compound 6, N-(4-(2-(1H-benzo[d][1,2,3]triazol-1-yl)-N-(1-(3-fluorophenyl)-2-oxo-2-((pyridin-3-ylmethyl)amino)ethyl)acetamido)phenyl)isobutyramide] | 5.5 ± 0.7 µM | 6.8 ± 1.9 µM | > 50% | 8.3 ± 1.2 µM | > 50% | 10 ± 1.9 µM | 2 ± 0.1 µM | 2.5 ± 0.2 µM | 13.8 ± 1.1 µM | – | – | – | – | – | – | – | – | – | – | –
CC(C)C(=O)Nc1ccc(N(C(=O)Cn2cnc3ccccc32)C(C(=O)NCc2ccccc2)c2cccc(F)c2)cc1 (stereo not drawn) [Compound 19, N-(4-(2-(1H-benzo[d]imidazol-1-yl)-N-(2-(benzylamino)-1-(3-fluorophenyl)-2-oxoethyl)acetamido)phenyl)isobutyramide] | – | 3.7 ± 0.6 µM | – | – | – | 3.9 ± 0.4 µM | 2.5 ± 0.2 µM | 2.9 ± 0.3 µM | – | 0.31 | 6.8 | – | – | – | – | – | – | – | – | –
CC(C)(C)NC(=O)C(c1ccsc1)N(C(=O)Cn1cnc2ccccc21)c1ccc(NC(=O)C2CC2)cc1 (stereo not drawn) [Compound 27, N-(4-(2-(1H-benzo[d]imidazol-1-yl)-N-(2-(tert-butylamino)-2-oxo-1-(thiophen-3-yl)ethyl)acetamido)phenyl)cyclopropanecarboxamide] | – | – | – | – | – | 16.3 ± 2.1 µM | 9.6 ± 1 µM | 9.7 ± 1.6 µM | – | 0.37 | 11.0 | – | – | – | – | – | – | – | – | –
CC(C)NC(=O)C(c1ccsc1)N(C(=O)Cn1nnc2ccccc21)c1ccc(NC(=O)C2CC2)cc1 (stereo not drawn) [Compound 29, N-(4-(2-(1H-benzo[d][1,2,3]triazol-1-yl)-N-(2-(isopropylamino)-2-oxo-1-(thiophen-3-yl)ethyl)acetamido)phenyl)cyclopropanecarboxamide] | 8.3 ± 1.5 µM | – | – | – | – | 11.1 ± 1.2 µM | 2 ± 0.2 µM | 2.4 ± 0.3 µM | – | – | 6.3* | 8.1 ± 1.6 µM | – | – | – | – | – | – | – | –
O=C(Nc1ccc(N(C(=O)Cn2nnc3ccccc32)C(C(=O)NC2CC2)c2ccsc2)cc1)C1CC1 (stereo not drawn) [Compound 32, N-(4-(2-(1H-benzo[d][1,2,3]triazol-1-yl)-N-(2-(cyclopropylamino)-2-oxo-1-(thiophen-3-yl)ethyl)acetamido)phenyl)cyclopropanecarboxamide] | 8.2 ± 1.5 µM | 9.8 ± 1.8 µM | – | – | – | 2.8 ± 0.2 µM | 0.8 ± 0.1 µM | 0.9 ± 0.1 µM | – | – | 5.0* | 14.8 ± 1.2 µM | six | – | – | – | – | – | – | –
O=C(Nc1ccc(N(C(=O)Cn2nnc3ccccc32)C(C(=O)NC2CCCC2)c2ccsc2)cc1)C1CC1 (stereo not drawn) [Compound 33, N-(4-(2-(1H-benzo[d][1,2,3]triazol-1-yl)-N-(2-(cyclopentylamino)-2-oxo-1-(thiophen-3-yl)ethyl)acetamido)phenyl)cyclopropanecarboxamide] | 4.2 ± 0.6 µM | – | – | – | – | 7.3 ± 0.8 µM | 0.5 ± 0.05 µM | 0.6 ± 0.1 µM | – | 0.32 | 5.7* | 3.7 ± 0.6 µM | – | not tolerated | – | – | – | – | – | –
O=C(Nc1ccc(N(C(=O)Cn2nnc3ccccc32)C(C(=O)NCc2cccnc2)c2ccsc2)cc1)C1CC1 (stereo not drawn) [Compound 34, N-(4-(2-(1H-benzo[d][1,2,3]triazol-1-yl)-N-(2-oxo-2-((pyridin-3-ylmethyl)amino)-1-(thiophen-3-yl)ethyl)acetamido)phenyl)cyclopropanecarboxamide] | 9.9 ± 0.9 µM | 7.4 ± 1.1 µM | – | – | – | 8.9 ± 0.5 µM | – | 2.1 ± 0.2 µM | 27.5 ± 3.8 µM | – | – | 15.6 ± 1.3 µM | – | – | – | – | – | – | – | –
O=C(Nc1ccc(N(C(=O)Cn2nnc3ccccc32)C(C(=O)NCc2ccccc2)c2ccsc2)cc1)C1CC1 (stereo not drawn) [Compound 37, N-(4-(2-(1H-benzo[d][1,2,3]triazol-1-yl)-N-(2-(benzylamino)-2-oxo-1-(thiophen-3-yl)ethyl)acetamido)phenyl)cyclopropanecarboxamide] | 2 ± 0.2 µM | – | – | – | – | 2.2 ± 0.2 µM | 0.6 ± 0.04 µM | 0.8 ± 0.1 µM | – | – | 5.3* | 3 ± 0.3 µM | – | – | – | – | – | – | – | –
CC(C)(C)NC(=O)C(c1cccnc1)N(C(=O)c1c[nH]cn1)c1ccc(C2CC2)cc1 (stereo not drawn) [Compound 39, N-(2-(tert-butylamino)-2-oxo-1-(pyridin-3-yl)ethyl)-N-(4-cyclopropylphenyl)-1H-imidazole-4-carboxamide] | 12.7 ± 2.5 µM | 2 ± 1.1 µM | – | 17.6 ± 2.6 µM | – | – | 16.6 ± 1.7 µM | 15.7 ± 2 µM | – | 0.19 | 7.6 | – | five out of ten | – | – | – | – | – | – | –
CC(C)(C)NC(=O)C(c1cccnc1)N(C(=O)c1c[nH]cn1)c1ccc(C2CCC2)cc1 (stereo not drawn) [Compound 40, N-(2-(tert-butylamino)-2-oxo-1-(pyridin-3-yl)ethyl)-N-(4-cyclobutylphenyl)-1H-imidazole-4-carboxamide] | 9.9 ± 1.2 µM | 6.6 ± 1.2 µM | – | 11.2 ± 1.5 µM | – | 13.7 ± 1.3 µM | 9.6 ± 0.7 µM | 8.7 ± 1.2 µM | 27 ± 3.1 µM | 0.16 | 3.6 | – | eight of ten | – | 18.2 ± 2.2 µM | – | – | – | – | –
CC(C)(C)NC(=O)C(c1cccnc1)N(C(=O)c1c[nH]cn1)c1ccc(C2CCCC2)cc1 (stereo not drawn) [Compound 41, N-(2-(tert-butylamino)-2-oxo-1-(pyridin-3-yl)ethyl)-N-(4-cyclopentylphenyl)-1H-imidazole-4-carboxamide] | 5.3 ± 0.5 µM | 5 ± 0.6 µM | – | 10.5 ± 0.9 µM | – | – | 19.8 ± 1.5 µM | 19.1 ± 2 µM | 18.7 ± 2 µM | 0.26 | 6.2 | – | – | – | – | – | – | – | – | –
CC(C)(C)NC(=O)C(c1cccnc1)N(C(=O)c1c[nH]cn1)c1ccc(C2CCCCC2)cc1 (stereo not drawn) [Compound 42, N-(2-(tert-butylamino)-2-oxo-1-(pyridin-3-yl)ethyl)-N-(4-cyclohexylphenyl)-1H-imidazole-4-carboxamide] | 6.3 ± 0.5 µM | 11.6 ± 1.5 µM | – | 26.2 ± 2.4 µM | – | 63.1 ± 12 µM | 27 ± 4.1 µM | 4.3 ± 1 µM | 39.7 ± 5.7 µM | 0.18 | 6.6 | – | – | – | – | – | – | – | – | –
CC(C)CNC(=O)C(c1cccnc1)N(C(=O)c1c[nH]cn1)c1ccc(C(C)(C)C)cc1 (stereo not drawn) [Compound 43, N-(4-(tert-butyl)phenyl)-N-(2-(isobutylamino)-2-oxo-1-(pyridin-3-yl)ethyl)-1H-imidazole-4-carboxamide] | 5.9 ± 0.5 µM | 5.8 ± 0.8 µM | – | 1.6 ± 0.1 µM | – | 12.4 ± 1 µM | 4.6 ± 0.3 µM | 5.8 ± 0.8 µM | 16.2 ± 1.3 µM | – | – | 13.5 ± 0.8 µM | – | – | 10.5 ± 1.1 µM | – | – | – | – | –
CC(C)(C)CNC(=O)C(c1cccnc1)N(C(=O)c1c[nH]cn1)c1ccc(C(C)(C)C)cc1 (stereo not drawn) [Compound 44, N-(4-(tert-butyl)phenyl)-N-(2-(neopentylamino)-2-oxo-1-(pyridin-3-yl)ethyl)-1H-imidazole-4-carboxamide] | 6.3 ± 0.5 µM | 9 ± 0.8 µM | – | 1.4 ± 0.1 µM | – | 15.6 ± 1 µM | 4.2 ± 0.2 µM | 3.6 ± 0.3 µM | 12.5 ± 0.8 µM | – | – | 8.2 ± 0.5 µM | – | – | 9.1 ± 0.8 µM | – | – | – | – | –
CC(C)(C)c1ccc(N(C(=O)c2c[nH]cn2)C(C(=O)NC2CC2)c2cccnc2)cc1 (stereo not drawn) [Compound 46, N-(4-(tert-butyl)phenyl)-N-(2-(cyclopropylamino)-2-oxo-1-(pyridin-3-yl)ethyl)-1H-imidazole-4-carboxamide] | 11.8 ± 1.6 µM | 7.8 ± 1.2 µM | – | 4.3 ± 0.4 µM | – | 24.5 ± 4.3 µM | 11.2 ± 1 µM | 8.9 ± 0.9 µM | 43.9 ± 6.1 µM | – | 4.0 | 16.8 ± 2.9 µM | – | – | – | – | – | – | – | –
CC(C)(C)OC(=O)CNC(=O)C(c1ccsc1)N(C(=O)Cn1nnc2ccccc21)c1ccc(NC(=O)C2CC2)cc1 (stereo not drawn) [Compound 64, tert-butyl (2-(2-(1H-benzo[d][1,2,3]triazol-1-yl)-N-(4-(cyclopropanecarboxamido)phenyl)acetamido)-2-(thiophen-3-yl)acetyl)glycinate] | 6.3 ± 0.8 µM | 6.5 ± 0.9 µM | – | 8.7 ± 1.4 µM | – | 4.5 ± 0.3 µM | 2.1 ± 0.2 µM | 2 ± 0.2 µM | 11.7 ± 1.2 µM | – | – | 8.7 ± 0.8 µM | eight of the ten | – | – | – | – | – | – | –
O=C(Nc1ccc(N(C(=O)Cn2nnc3ccccc32)C(C(=O)NC2CCCCC2)c2ccsc2)cc1)C1CC1 (stereo not drawn) [Compound 67, N-(4-(2-(1H-benzo[d][1,2,3]triazol-1-yl)-N-(2-(cyclohexylamino)-2-oxo-1-(thiophen-3-yl)ethyl)acetamido)phenyl)cyclopropanecarboxamide] | – | – | – | – | – | – | 0.7 ± 0.1 µM | 0.6 ± 0.1 µM | – | 0.39 | 8.3* | – | – | – | – | not tolerated | not tolerated | not tolerated | sub-micromolar | sub-micromolar
